From patent publication US12279618B2, “Use of dihydroporphin derived from chlorophyll as plant growth regulator” (Anqing Better Bioengineering Co., Ltd, priority 2019, dated 2025)

Key:
Assay type in all cases: in vivo
[1] = test system: corn seeds; experiment: Corn seed germination experiment (seed soaking method, NYT 2061.1-2011)
From the text: Test Method: Ministerial Standard NYT 2061.1-2011, Seed Soaking Method
Test samples: crude chlorin, and dihydroporphin monomers including chlorin fG, chlorin e6, pheophorbide, pyropheophorbide, chlorin e4, purpurin-7, purpurin-18, chlorin p6, 15-formyl rhodochlorin, 15-oxymethyl rhodochlorin, 15-oxymethyl rhodochlorin lactone A, 15-hydroxymethyl rhodochlorin, and 15-hydroxymethyl rhodochlorin lactone B, and pure water and iron chlorin e6 (China Pesticide Registration Certificate Number: PD20190031) were used as blank and positive control.
10 mg of each sample was weighed and put into a 10 ml volumetric flask, dissolved with DMSO, and diluted to volume after being dissolved completely. 1 ml of each diluted monomer solution was put into a 50-1000 ml volumetric flask, added with water, blended and diluted to volume so as to prepare a solution with a concentration of 2 ppm, 0.2 ppm, or 0.02 ppm.
The method was substantially the same as that in Example 2, except that the test samples were monomer chlorin e6 and control monomer chlorin e6 iron (III), both at a concentration of 0.02 ppm and the test seeds were corn, soybean, rice and wheat seeds. The preparation method of the control monomer was conducted by referring to CN102273467B.

[2] = test system: rice seeds; experiment: Rice seed germination experiment (seed soaking method)
Method: (§1) Test Method: Ministerial Standard NYT 2061.1-2011, Seed Soaking Method 10 mg of each sample was weighed and put into a 10 ml volumetric flask, dissolved with DMSO, and diluted to volume after being dissolved completely. 1 ml of each diluted monomer solution was put into a 50-1000 ml volumetric flask, added with water, blended and diluted to volume so as to prepare a solution with a concentration of 2 ppm, 0.2 ppm, or 0.02 ppm. The method was substantially the same as that in Example 2 except that rice seeds were used as the crop seeds. The method was substantially the same as that in Example 2, except that the test samples were monomer chlorin e6 and control monomer chlorin e6 iron (III), both at a concentration of 0.02 ppm and the test seeds were corn, soybean, rice and wheat seeds. The preparation method of the control monomer was conducted by referring to CN102273467B.

[3] = test system: soybean seeds; experiment: Soybean seed germination experiment (seed soaking method)
Method: Test Method: Ministerial Standard NYT 2061.1-2011, Seed Soaking Method 10 mg of each sample was weighed and put into a 10 ml volumetric flask, dissolved with DMSO, and diluted to volume after being dissolved completely. 1 ml of each diluted monomer solution was put into a 50-1000 ml volumetric flask, added with water, blended and diluted to volume so as to prepare a solution with a concentration of 2 ppm, 0.2 ppm, or 0.02 ppm. The method was substantially the same as that in Example 1 except that soybean seeds were used as the crop seeds, and the samples were crude chlorin, pyropheophorbide, chlorin f, chlorin e6, chlorin e4, purpurin-18, 15-oxymethyl rhodochlorin lactone, and 15-hydroxymethyl rhodochlorin lactone. The method was substantially the same as that in Example 2, except that the test samples were monomer chlorin e6 and control monomer chlorin e6 iron (III), both at a concentration of 0.02 ppm and the test seeds were corn, soybean, rice and wheat seeds. The preparation method of the control monomer was conducted by referring to CN102273467B.

[4] = test system: wheat seeds; experiment: Wheat seed germination experiment (seed soaking method)
Method: as §1, with “that wheat” for “that rice”

[5] = test system: soybean seeds; experiment: Soybean seed germination experiment (seed soaking method); settings: 0.2 ppm sample solution
[6] = 0.02 ppm sample solution, seed soaking
[7] = 0.2 ppm sample solution, seed soaking
[8] = 2 ppm sample solution, seed soaking
[9] = soybean seeds, 0.02 ppm sample solution
[10] = soybean seeds, 0.2 ppm sample solution
[11] = soybean seeds, 2 ppm sample solution
[12] = comparison of the monomers, 0.02 ppm
[13] = comparison of the monomers, 0.02 ppm, listed as chlorin e6
[14] = comparison of the monomers, soy bean seeds, 0.02 ppm

| Molecule | Germination rate % [1, 6] [%] | Germination rate % [1, 7] [%] | Germination rate % [1, 8] [%] | Germination rate % ([2]; 0.02 ppm sample solution) [%] | Germination rate % ([2]; 2 ppm sample solution) [%] | Germination rate % [3, 9] [%] | Germination rate % [3, 10] [%] | Germination rate % [3, 11] [%] | Germination rate % ([4]; 0.2 ppm sample solution) [%] | Germination rate % ([4]; 2 ppm sample solution) [%] | Germination rate % ([2]; 0.2 ppm sample solution) [%] | Germination rate % ([4]; 0.02 ppm sample solution) [%] | further results |
| --- | --- | --- | --- | --- | --- | --- | --- | --- | --- | --- | --- | --- | --- |
| 15-oxymethyl rhodochlorin | 56 | 52 | 52 | – | – | – | – | – | – | – | – | – | – |
| 15-oxymethyl rhodochlorin lactone | 54 | 66 | 58 | 72 | 70 | 58 | 58 | 60 | 94 | 82 | – | – | – |
| C=Cc1c(C)c2cc3nc(c(C=O)c4[nH]c(cc5nc(cc1[nH]2)C(C)=C5CC)c(C)c4C(=O)O)[C@@H](CCC(=O)O)[C@@H]3C [15-formyl rhodochlorin] | 52 | 51 | 54 | – | – | – | – | – | – | – | – | – | – |
| C=Cc1c(C)c2cc3nc(c4c5[nH]c(cc6nc(cc1[nH]2)C(C)=C6CC)c(C)c5C(=O)OC4)C(CCC(=O)O)C3C (centres unmarked) [15-hydroxymethyl rhodochlorin lactone] | 60 | 54 | 48 | 72 | 68 | – | 60 | – | 96 | 92 | 74 | 86 | – |
| C=Cc1c(C)c2cc3nc(c(CO)c4[nH]c(cc5nc(cc1[nH]2)C(C)=C5CC)c(C)c4C(=O)O)C(CCC(=O)O)C3C (centres unmarked) [15-hydroxymethyl rhodochlorin] | 58 | 59 | 55 | – | – | – | – | – | – | – | – | – | – |
| C=Cc1c(C)c2cc3nc(c(C)c4[nH]c(cc5nc(cc1[nH]2)C(C)=C5CC)c(C)c4C(=O)O)[C@@H](CCC(=O)O)[C@@H]3C [Chlorin e4, chlorin e4] | 57 | 55 | 48 | 71 | 77 | 67 | 66 | 65 | 98 | 97 | 76 | 93 | – |
| C=Cc1c(C)c2cc3nc(c(CC(=O)O)c4[nH]c(cc5nc(cc1[nH]2)C(C)=C5CC)c(C)c4C(=O)O)[C@@H](CCC(=O)O)[C@@H]3C [Chlorin e6, chlorin e6] | 58 | 42 | 46 | 70 | 68 | 60 | 59 | 60 | 96 | 90 | 74 | 94 | Germination rate % [2, 12]: 76%; Germination rate % [2, 13]: all better than those for the iron chelate monomer chlorin e6 iron (III); Germination rate % [1, 12]: 58%; Germination rate % [1, 13]: all better than those for the iron chelate monomer chlorin e6 iron (III); Germination rate % [3, 14]: 66%; Germination rate % ([3]; comparison of the monomers, soy bean seeds, 0.02 ppm, listed as chlorin e6): all better than those for the iron chelate monomer chlorin e6 iron (III); Germination rate % ([4]; 0.02 ppm sample solution, listed as chlorin e6): best germination effect; Germination rate % [4, 12]: 94%; Germination rate % [4, 13]: all better than those for the iron chelate monomer chlorin e6 iron (III) |
| C=Cc1c(C)c2cc3nc(c(C(=O)O)c4[nH]c(cc5nc(cc1[nH]2)C(C)=C5CC)c(C)c4C(=O)O)[C@@H](CCC(=O)O)[C@@H]3C [Chlorin p6, chlorin p6] | 49 | 55 | 52 | – | – | – | – | – | – | – | – | – | – |
| C=Cc1c(C)c2cc3nc(c4c5[nH]c(cc6nc(cc1[nH]2)C(C)=C6CC)c(C)c5C(=O)[C@@H]4C(=O)OC)[C@@H](CCC(=O)O)[C@@H]3C [Pheophorbide, pheophorbide] | 57 | 55 | 56 | – | – | – | – | – | – | – | – | – | – |
| C=Cc1c(C)c2cc3nc(c4c5[nH]c(cc6nc(cc1[nH]2)C(C)=C6CC)c(C)c5C(=O)OC4=O)[C@@H](CCC(=O)O)[C@@H]3C [Purpurin-18, purpurin-18] | 55 | 58 | 53 | 77 | 76 | 66 | 65 | 67 | 97 | 95 | 78 | 97 | – |
| C=Cc1c(C)c2cc3nc(c4c5[nH]c(cc6nc(cc1[nH]2)C(C)=C6CC)c(C)c5C(=O)C4)[C@@H](CCC(=O)O)[C@@H]3C [Pyropheophorbide, pyropheophorbide] | 58 | 56 | 55 | 73 | 72 | 61 | 67 | 65 | 92 | 93 | 74 | 94 | – |
| chlorin e6 iron (III) [reference compound] | – | – | – | – | – | – | – | – | – | – | – | – | Germination rate % [2, 12]: 58%; Germination rate % [1, 12]: 46%; Germination rate % [3, 14]: 60%; Germination rate % [4, 12]: 92% |
| chlorin f | 55 | 66 | 58 | 76 | 66 | 66 | 54 | 62 | 88 | 92 | 72 | 94 | Germination rate % ([3]; soybean seeds, 2 ppm sample solution, listed as chlorin f): better germination effects than the positive control; Germination rate % ([4]; 0.02 ppm sample solution, listed as chlorin f): best germination effect |
| iron chlorin e6 [reference compound] | 53 | 57 | 64 | 78 | 74 | 60 | 66 | 56 | 88 | 86 | 76 | 90 | Germination rate % ([2]; 0.02 ppm sample solution, listed as iron chlorin e6): best germination effect; Germination rate % ([2]; 2 ppm sample solution, listed as iron chlorin e6): best germination effect; Germination rate % [5]: most ideal germination effect |
| purpurin-7 | 56 | 57 | 53 | – | – | – | – | – | – | – | – | – | – |
